One data set concerns CaCC. Briefly: Short-circuit current (Isc) analysis in IL-13-treated HBE cells, ATP response. The class given is cell-based, human. The note with it: 25 μM, 30 min pre-treatment. On the procedure:
Further experiments were done with PDSinh-A01 because of its greater inhibition potency for Cl^−/HCO3^− exchange than PDSinh-C01. To investigate PDSinh-A01 specificity, the major ion transport pathways in HBE cells were studied by short-circuit current (Isc) analysis. Cells were treated with IL-13 to increase Ca^2+-activated Cl^− conductance (CaCC) activity. For Isc measurements, cells were sequentially treated with amiloride to inhibit the epithelial sodium channel (ENaC), forskolin to activate the cystic fibrosis transmembrane conductance regulator (CFTR), CFTRinh-172 to inhibit CFTR, and ATP to activate CaCC. In the absence of PDSinh-A01, ion channel modulators produced the anticipated changes in Isc (FIG. 4A).
IL-13-treated HBE cells were cultured on Snapwell clear permeable supports (12 mm diameter, 0.4 μm polyester membrane, Costar, Corning, Corning, N.Y.). Short-circuit current was measured using symmetrical HCO3^−-buffered solutions (in mM: 120 NaCl, 5 KCl, 1 MgCl2, 1 CaCl2, 5 Hepes, 25 NaHCO3; pH 7.4) as described, with ion transport modulators added to both apical and basolateral bathing solutions. Cells were equilibrated with 95% O2/5% CO2 and maintained at 37° C. during data acquisition. Statistical analysis was by Student's t-test.

Data set [1] is described as follows: Pharmacokinetics in mice, LC/MS of plasma and urine. The class given is in vivo. The following applies: 10 mg/kg bolus ip. On the procedure: Pharmacokinetics measurements were done to guide studies of diuretic efficacy. Animal experiments were approved by UCSF Institutional Animal Care and Use Committee. Female CD1 mice (8-10 weeks) were injected with 10 mg/kg PDSinh-C01 (in saline containing 5% DMSO and 10% Kolliphor HS) ip and blood was collected by orbital puncture at 15, 30, 60, 150 and 240 min, and centrifuged at 5000 rpm for 15 min to separate plasma. Urine was collected in metabolic cages. An LC/MS method was developed to measure PDSinh-C01 concentrations in mouse blood and urine. Plasma and urine samples (60 μL) were mixed with 300-μL acetonitrile and centrifuged at 13000 rpm for 20 min, and 90 μL of the supernatant was taken for liquid chromatography/mass spectrometry (LC/MS; Waters 2695 and Micromass ZQ). […] Sodium and potassium concentrations in 3-h collected urine samples were measured by flame photometry (PFP7 Clinical Flame Photometer, Bibby Scientific Ltd, Stone. Staffs, UK). […] Blood gas was analyzed by iSTAT1 with CG4+ cartridges (Abbott Laboratories, Abbott Park, IL, USA). Urine pH was measured on freshly collected urine samples using an AB 15 pH Meter (Fisher Scientific, Pittsburgh, Pa., USA). Experiments with two groups were analyzed with Student's t-test, and experiments with 3 or more groups were analyzed using one-way analysis of variance and post-hoc Newman-Keuls multiple comparisons test. […]

For the compound `Cn1nc(COc2cccc(F)c2)c2c1CCN(C(=O)Nc1ccc(Cl)cc1)C2` [PDSinh-A01], the “effect on CaCC activity (Isc response)” value in the data set with CaCC is given as “did not affect the activity”.

On to `Cc1n[nH]c(-c2cc(S(=O)(=O)NC3CCCc4ccccc43)c(C)s2)c1C` (stereo not drawn) [PDSinh-C01], for which, in data set [1], the concentration in plasma entry is listed as “predicted therapeutic concentrations for several hours” and the concentration in urine entry is listed as “predicted therapeutic concentrations for several hours”.

The record behind these values is patent US10702506B2, “Small molecule inhibitors of pendrin ion exchange and pharmaceutical compositions” (THE REGENTS OF THE UNIVERSITY OF CALIFORNIA, priority 2016, dated 2020).
